Assay results taken from publication PMC11724841 (Communications Biology, 2025).

Columns and labels:
[1] = target: T1, iso-3 HiPIP (Halorhodospira halophila, UniProt A1WXH6); experiment: cryo-EM structure, […] Å; assay type: binding; settings: native complex; functional N-terminal domain
T1 sequence (A1WXH6 26-145): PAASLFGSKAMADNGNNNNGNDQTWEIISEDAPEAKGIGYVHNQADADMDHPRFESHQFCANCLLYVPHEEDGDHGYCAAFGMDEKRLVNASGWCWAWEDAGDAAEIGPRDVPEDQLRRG

[2] = target: Hlr. halophila RC (in LH1–RC–HiPIP complex) (Halorhodospira halophila, UniProt A1WXF6+A1WXF7); experiment: cryo-EM structure, […] Å; assay type: binding; settings: native complex
[3] = target: Halorhodospira halophila LH1–RC core complex (Halorhodospira halophila strain BN9622); experiment: cryo-EM structure

Sequence of Hlr. halophila RC (in LH1–RC–HiPIP complex) (A1WXF7 1-276): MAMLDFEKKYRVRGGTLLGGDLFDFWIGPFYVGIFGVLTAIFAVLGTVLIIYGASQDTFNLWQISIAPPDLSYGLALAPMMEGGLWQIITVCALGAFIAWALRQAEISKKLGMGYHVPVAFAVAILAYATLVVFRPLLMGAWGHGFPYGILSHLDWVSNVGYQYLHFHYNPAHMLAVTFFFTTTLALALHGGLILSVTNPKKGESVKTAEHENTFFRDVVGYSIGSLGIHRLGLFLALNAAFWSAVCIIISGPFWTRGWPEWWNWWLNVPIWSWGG
Sequence of Hlr. halophila RC (in LH1–RC–HiPIP complex) (A1WXF6 1-323): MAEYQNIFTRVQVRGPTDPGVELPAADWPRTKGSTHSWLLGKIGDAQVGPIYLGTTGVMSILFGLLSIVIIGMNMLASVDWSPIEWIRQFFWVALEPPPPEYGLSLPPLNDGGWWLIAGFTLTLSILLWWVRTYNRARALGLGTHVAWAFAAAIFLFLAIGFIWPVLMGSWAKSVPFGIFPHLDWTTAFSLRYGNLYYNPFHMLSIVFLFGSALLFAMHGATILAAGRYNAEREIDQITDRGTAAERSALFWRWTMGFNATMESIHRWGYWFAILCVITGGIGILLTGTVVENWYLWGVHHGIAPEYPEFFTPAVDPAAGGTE
Sequence of Hlr. halophila RC (in LH1–RC–HiPIP complex) (A1WXI3 1-278 partner): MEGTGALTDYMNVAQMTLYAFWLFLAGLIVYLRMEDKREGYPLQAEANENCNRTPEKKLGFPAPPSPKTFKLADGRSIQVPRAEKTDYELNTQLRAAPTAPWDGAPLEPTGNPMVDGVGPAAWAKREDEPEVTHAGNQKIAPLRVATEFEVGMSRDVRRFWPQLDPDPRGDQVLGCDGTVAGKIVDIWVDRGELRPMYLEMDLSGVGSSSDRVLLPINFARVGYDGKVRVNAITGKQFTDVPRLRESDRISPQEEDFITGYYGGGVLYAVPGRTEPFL
Sequence of Hlr. halophila RC (in LH1–RC–HiPIP complex) (A1WXF5 26-362 partner): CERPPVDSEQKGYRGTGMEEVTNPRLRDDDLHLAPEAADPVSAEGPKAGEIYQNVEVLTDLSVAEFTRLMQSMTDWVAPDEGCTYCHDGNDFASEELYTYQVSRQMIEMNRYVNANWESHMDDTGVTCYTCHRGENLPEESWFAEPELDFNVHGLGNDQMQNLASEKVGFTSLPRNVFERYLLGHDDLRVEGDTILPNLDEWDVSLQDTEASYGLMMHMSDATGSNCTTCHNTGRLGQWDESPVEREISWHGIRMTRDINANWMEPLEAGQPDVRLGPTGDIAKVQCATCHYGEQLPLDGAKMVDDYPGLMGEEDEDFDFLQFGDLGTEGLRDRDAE

[S]12[Fe]3[S]4[Fe]1[S]1[Fe]2[S]3[Fe]41 [4Fe–4S, 4Fe–4S cluster]
cryo-EM structure, 2.44 Å [1]: N-terminal functional portion containing the 4Fe–4S cluster

CC[C@H]1c2cc3[nH]c4c(c3C)C(=O)[C@H](C(=O)OC)c4c3nc(cc4[nH]c(cc(n2)[C@@H]1C)c(C(C)=O)c4C)[C@@H](C)[C@@H]3CCC(=O)OC/C=C(\C)CCC[C@H](C)CCC[C@H](C)CCCC(C)C [BPhe]
cryo-EM structure, 2.44 Å ([2]; RC pigment, printed only as BPhe): BPhe, orange sticks

CC(C)=CCC/C(C)=C/CC/C(C)=C/CC/C(C)=C/CC/C(C)=C/CC/C(C)=C/CC/C(C)=C/CC/C(C)=C/CC1=C(C)C(=O)c2ccccc2C1=O [MQ-8, menaquinone-8]
cryo-EM structure, 2.44 Å ([2]; QA site): one MQ-8 and one UQ-8 were identified unambiguously at the RC QA and QB sites

COC1=C(OC)C(=O)C(C/C=C(\C)CC/C=C(\C)CC/C=C(\C)CC/C=C(\C)CC/C=C(\C)CC/C=C(\C)CC/C=C(\C)CCC=C(C)C)=C(C)C1=O [UQ-8, ubiquinone-8]
cryo-EM structure, 2.44 Å ([2]; QB site): one MQ-8 and one UQ-8 were identified unambiguously at the RC QA and QB sites

Halorhodospira halophila iso-3 high-potential iron–sulfur protein (HiPIP) (natural protein)
percent of LH1–RC particles with bound HiPIP [3]: 66.7%
